Data: patent US12084698B2, “Virus-like particles and use thereof” (priority 2018, dated 2024)

What was measured:
[1] = test system: EGxxFP reporter construct in HEK293T EGxxFP cells; experiment: SSA-EGFP (EGxxFP) reporter experiment, flow cytometry of GFP-positive cells; format: cell-based, human; settings: VLPs prepared at 0, 3, 30, 300 nM AP21967; 5×10^4 cells; 3 days
Protocol: The HEK293T EGxxFP cells were seeded on a 48-well plate at 2.5×10^4 to 5.0×10^4 cells/well. On the next day, the VLP solution was added thereto, and then after 3 days, the fluorescence of EGFP was analyzed using an LSR3 flow cytometer.
FIG. 2 is a schematic view illustrating an SSA-EGFP (hereinafter, called “EGxxFP” in some cases) reporter experiment. As cells, HEK293T cells were used which constantly express sgRNA targeting the human Dystrophin (DMD) gene and have genome into which the EGxxFP reporter construct (SEQ ID NO: 21) was inserted. The EGxxFP reporter construct is a construct designed by inserting a sequence including the target sequence of the sgRNA into the EGFP cDNA sequence, so that a functional EGFP protein is not expressed.
Then, the cleaved EGFP cDNA is repaired by single-strand annealing (SSA). As a result, functional EGFP is expressed, and the fluorescence of EGFP can be observed. In this experimental system, by quantifying the fluorescence of EGFP in the cells by using a flow cytometer, it is possible to evaluate the target gene cleavage efficiency (genome editing efficiency) of the Cas9 protein in cell populations.
Then, the prepared VLPs (15 μL) were introduced into the HEK293T EGxxFP reporter cells (5×10^4 cells expressing sgRNA). Subsequently, after 3 days, the proportion of GFP-positive cells was analyzed with a flow cytometer.

[2] = test system: DNA (700 bp) including a dystrophin target sequence; experiment: In vitro DNA cleavage activity of VLP lysate; format: biochemical, human; settings: VLPs prepared in presence or absence of AP21967
Protocol: Thereafter, in order to test the amount of the Cas9 protein contained in VLPs, in vitro DNA cleavage activity was measured. Specifically, Lysis buffer was added to each of the concentrated VLPs, and the mixture was left to stand on ice for 10 minutes so that the VLPs were lysed.
After the reaction, in order to remove sgRNA, RNase A was added thereto and reacted at 37° C. for 30 minutes. Furthermore, in order to remove proteins, proteinase K was added thereto and reacted at 50° C. for 20 minutes.
Then, these samples were subjected to electrophoresis using 2200 TapeStation (high sensitivity D1000 TapeScreen, Agilent Technologies, Inc.), and the proportion of cleaved DNA including the dystrophin target sequence was measured.

DMD gene = experiment: T7EI assay in HEK293T EGxxFP cells expressing sgRNA DMD #1; format: cell-based, human; settings: VLPs prepared in presence or absence of AP21967
Protocol: By using MonoFas Genomic DNA Extraction kit (GL Sciences Inc.), genomic DNA was recovered from the cultured cells according to the protocol. Then, PCR was performed using 100 ng of the genomic DNA, primers for the regions to be amplified, and PrimeSTAR GXL DNA Polymerase (Takara Bio Inc.), and the PCR product was purified using Wizard SV Gel and PCR Clean-up System (Promega Corporation).
Subsequently, 400 ng of the PCR product was thermally denatured in NEBuffer 2.1 (New England Biolabs) at 95° C. for 5 minutes and then reannealed by slow cooling. The PCR product was cooled to 85° C. from 95° C. at −2° C./sec and then to 25° C. from 85° C. at −0.1° C./sec. Subsequently, 10 units of T7 endonuclease I (T7EI) enzyme was added thereto and reacted at 37° C. for 15 minutes. Thereafter, 6 mM of EDTA was added thereto so that the reaction stopped. Then, the cleavage products were analyzed using DS1000 High Sensitivity Screen Tape and Tape Station 2200 (Agilent Technologies, Inc.).
Then, the cleavage activity for the target DMD gene on the genome was measured by T7EI assay.
After 3 days, genomic DNA was extracted from each of the cells. Subsequently, the target region of the DMD gene on the genome was amplified by PCR. Thereafter, the PCR product was purified using columns, and by using 400 ng of the obtained DNA, mutation introduction efficiency was measured by T7EI assay.

HIV protease = HIV protease (Human immunodeficiency virus type 1 group M subtype B, UniProt P04585); settings: Darunavir added to cells in preparing VLPs
Protocol: First, in the presence or absence of Darunavir (HIV protease inhibitor), VLPs (FIGS. 1(a) and 1(b)) were prepared which were constituted with wild-type Gag-Pol^HIV or FKBP12-Gag-Pol^HIV derived from HIV and encapsulated a Cas9 protein fused with an FRB domain (hereinafter, called “FRB-Cas9 protein” in some cases).
Subsequently, FKBP12-Gag-Pol^HIV and the HA-tagged FRB-Cas9 protein in each of the above VLPs were quantified by Western blotting.

Row | SMILES | genome editing efficiency (proportion of GFP-positive cells) [1] | encapsulation of Cas9 in VLPs on addition of AP21967 [2] | encapsulation of Cas9 in VLPs on addition of AP21967 (DMD gene) | cleavage of Gag protein and degradation of Cas9 protein in VLPs (HIV protease)
1 | CO[C@H]1[C@@H](O)[C@H](C)C[C@H](C)/C=C/C=C/C=C(\C)[C@@H](c2c[nH]c3c(C)cccc23)C[C@@H]2CC[C@@H](C)[C@@](O)(O2)C(=O)C(=O)N2CCCC[C@H]2C(=O)O[C@H]([C@H](C)C[C@@H]2CC[C@@H](O)[C@H](OC)C2)C[C@H](O)[C@H](C)/C=C(\C)[C@H]1O [AP21967, C-16-(S)-7-methylindole rapamycin] | increases depending on the AP21967 concentration | more efficiently encapsulated | more efficiently encapsulated | –
2 | CC(C)CN(C[C@@H](O)[C@H](Cc1ccccc1)NC(=O)O[C@H]1CO[C@H]2OCC[C@H]21)S(=O)(=O)c1ccc(N)cc1 [Darunavir] | – | – | – | inhibited
